“And” between values parts separate entries of the source, which are not always exact repeats. Equal entries are not always repeated.

Common to all, as to format: cell-based, human
The test system of data set [1] is AML blasts. Kind of data set: Tyrosine phosphorylation inhibition with genistein, effect on HA-induced differentiation. To be noted: genistein 1 hour, then HA five days. The protocol: (§1) Tyrosine phosphorylation inhibition with genistein: 2.10^5 AML blasts, suspended in 200 μl of RPMI 1640/10% FCS medium, were incubated in the presence of 50 nM/l of genistein (Calbiochem-Novabiochem, San Diego, Calif.) for 1 hour at 37° C., and then in the presence of HA for either one hour (for studies on cytokine transcript expression), or five days (for studies on differentiation).

Data set [2] concerns AML blasts. Kind of data set: Trypan blue exclusion test. The following applies: genistein then HA. The protocol:
as §1

The test system of data set [3] is AML blasts. Kind of data set: AML blast differentiation induced by HA or anti-CD44 mAbs (NBT, CD14/CD15, cytology criteria). An excerpt: Leukaemic peripheral blood or bone marrow samples were taken at the time of diagnosis, after informed consent, from 36 patients suffering from acute myeloid leukaemia (AML). The diagnosis of the disease and its classification comply with French-American-British (FAB) classification criteria.
Fresh or frozen AML cells were enriched by centrifugation according to the density gradient in the presence of Ficoll, and washed in RPMI 1640 medium containing 10% foetal calf serum (FCS). The frozen cells were thawed at ambient temperature in RPMI 1640 medium containing 50% FCS, and then washed twice in RPMI medium supplemented with 10% FCS. B and T lymphocytes were eliminated from all the samples, along with monocytes for the AML1/2 and AML3 samples. This elimination was performed by specific immunoadsorption of Dynabeads beads (Dynal, Oslo, Norway) coated with monoclonal antibodies directed against the specific surface antigens CD2 and CD19 (lymphocytes) and CD14 (monocytes), according to the manufacturer's instructions. In this way, cell suspensions containing more than 95% AML blasts were obtained.
(§2) AML blast treatment with HA. Cell suspensions containing more than 95% AML blasts were deposited in triplicate at a rate of 2.105 cells per ml of RPMI 1640/10% FCS in tissue culture plates (Costar Corp., Cambridge, Mass.) with 96 wells each containing 150 μl of medium, and placed in incubation for 5 days in the presence of 20 μg/ml of hyaluronic acid (hHA, HA-6 or HA-12). HA was added at the specified concentrations and chondroitin sulphate was added to the negative controls. The plates were placed in an incubator at 37° C. in a humid atmosphere for […], and the cells underwent the differentiation studies as described below.
Differentiation was detected by analysing 3 criteria: 1) the ability to produce an oxidation-reduction reaction in response to a phorbol ester: this oxidation-reduction reaction is detected with nitroblue tetrazolium NBT reduction, 2) the expression of specific antibodies for differentiation (specific CD14 for monocytes, and specific CD15 for granulocytes), and 3) specific cytological modifications. All these criteria are specific to normal differentiate granulocyte or monocyte cells.

The test system of data set [4] is AML blasts. Kind of data set: Nitroblue tetrazolium (NBT) reduction test. The protocol: as §2
Nitroblue tetrazolium (NBT) reduction test: The ability to reduce NBT was measured using conventional techniques. Briefly, 2.10^5 cells were suspended in 900 μl of RPMI 1640 medium and were incubated in the presence of 0.2 μg/ml of 12-O-tetradecanoylephorbol-13-acetate (TPA, Sigma) and 0.5 mg/ml of NBT (Sigma) for 30 minutes at 37° C. The reaction was stopped at 4° C., the cells were cytocentrifuged and subjected to May-Grünwald-Giemsa staining agent. The percentage of cells containing black NBT reduction deposits was determined in duplicate, under an optical microscope, after examining 300 cells.

Data set [5] deals with AML blasts. As to the kind of experiment: Flow cytometry analysis of CD14 and CD15 expression. Here is the method: as §2
Flow cytometry analysis of CD14 and CD15 expression: the AML blasts were suspended at a rate of 10^5 blasts/ml of RPMI 1640 medium containing 0.02% bovine serum albumin and 0.02% […] NaN3, and were then incubated at 4° C. for 30 minutes in the presence of mAbs conjugated with fluorescein isothiocyanate (FITC), and directed against CD14 (5 μg/ml IgG2b, Coulter Immunology, Hialeah, Fla.) or directed against CD15 (1 μg/ml IgM, Becton Dickinson, San José, Calif.). The mAbs were used at saturation concentrations. The murine IgM and IgG2b conjugated with FITC were obtained from Coulter-Immunotech (Coulter-Immunotech Inc., Westbrook, Me.), and were used at a 1:50 dilution. The bonding of the mAbs directed against CD14 and CD15 was quantified by measuring, by flow cytometry, the cell fluorescence in relation to that of cells labelled with the IgG-FITC. The measurement was made using a FACSvantage (Becton Dickinson) equipped with an INNOVA70-4 argon ion laser (Coherent Radiation, Palo Alto, Calif.) set at 488 nm and operating at 500 mW. The flow cytometer was calibrated using fluorescent beads (Becton Dickinson). This measurement was made on 3000 cells.
In general terms: Flow cytometry measures light scatter and fluorescence of single cells or particles in a stream.

Data set [6] concerns AML blasts. Kind of data set: Cytological study (May-Grünwald-Giemsa staining). The protocol: as §2
The cell smears, prepared in triplicate, were stained by May-Grünwald-Giemsa staining and their cytology was examined under an optical microscope.

Data set [7] relates to intracellular tyrosine phosphorylations in AML blasts. Kind of data set: Protein phosphorylation analysis on tyrosine residue. The following applies: AML5 blasts, 6D12-FITC flow cytometry. The protocol:
Protein phosphorylation induction on tyrosine residue: HA-12 (50 μg/ml) was added at the time t=0 to 2.10^5 AML blasts suspended, at ambient temperature, in 200 μl of RPMI 1640 medium containing 10% FCS. At t=1 min, 5 min, 15 min and 30 min, 200 μl of Permeafix Ortho (Coulter-Immunotech Inc., Westbrook, Me.) was added to stop the phosphorylations and permeabilise the cells. After 40 minutes of incubation at ambient temperature, and three washes in PBS, the phosphorylated proteins on the tyrosine residue were labelled specifically with 6D12 mAb (used at 2 μg/ml conjugated with FITC, and the labelling intensity was measured by flow cytometry with reference to the isotype control (cells labelled with IgG1 conjugated with FITC), as described above.

The next data set deals with M-CSF transcripts. As to the kind of experiment: RT-PCR cytokine transcript expression study. To be noted: out of 3 cases, 1 hour after HA treatment. The protocol:
RT-PCR cytokine transcript expression study: the total RNA was extracted from 5.10^5 cells using Trizol reagent (Life Technologies, Cergy Pontoise, France), followed by a phenolchloroform extraction and isopropanol precipitation. One microgram of total RNA heated at 70° C. for 10 minutes was used as a matrix for the synthesis of the first strand of complementary DNA (cDNA), by adding reverse transcriptase and random hexamers (Life Technologies). The transcript of the glyceraldehyde phosphodehydrogenase (GADPH) housekeeping gene was used as an internal marker for the PCR reaction (0.24 kb amplification product). Equilibrated quantities of cDNA were used for the PCR amplification of the cytokine transcripts, the primers used for PCR were as follows: […]
The PCR protocol consisted of 30 cycles of 94° C. for 1 minute, 58° C. for 1 minute and 72° C. for 1 minutes, using a thermocycler (Perkin Elmercetus, Norwalk, Conn.) For each experiment, two negative controls were subject to all the steps.

[8] abbreviates: Total number, 35 cases analysed.

For `O=c1c(-c2ccc(O)cc2)coc2cc(O)cc(O)c12` [genistein], the “effect on AML3 and AML5 differentiation induced by CD44 (HA treatment)” value in the data set with AML blasts [1] is reported as “inhibits this differentiation”. Besides, the cell viability entry in the data set with AML blasts [2] is “greater than 95%”.
With hyaluronic acid [HA], the “Number of cases of differentiation” value in the data set with AML blasts [3] (AML1/2, 7 cases analysed, 20 μg/ml HA, 5 days) was 5/7 and 5; in the data set with AML blasts [3] (AML3, 16 cases analysed, 20 μg/ml HA, 5 days), 12/16 and 12; in the data set with AML blasts [3] (AML4, 4 cases analysed, 20 μg/ml HA, 5 days), 3/4 and 3; with AML blasts [3] (AML5, 8 cases analysed, 20 μg/ml HA, 5 days), 6/8 and 6; in the data set with AML blasts [3] (setting [8]), 26. Moreover, the “Number of cases of differentiation, as % of cases analysed” value in the data set with AML blasts [3] (setting [8]) was 74%. Besides, the “cases of AML in which it was not possible to induce differentiation” value in the data set on AML blasts [3] (all AML patients (36)) is 9/36. Further, the “% NBT^+ cells, median value” stood at 22% with AML blasts [4] (AML1/2, 5 out of 7 cases); 42% with AML blasts [4] (AML3, 12 out of 16 cases); 55% in the data set with AML blasts [4] (AML4); 52% in the data set with AML blasts [4] (AML5, 6 out of 8 cases). Further, the “% NBT^+ cells in the cases as high as with all-transretinoic acid” value in the data set with AML blasts [4] (AML3, 6 of the 12 responding cases) is given as “over 50%”. The “median % NBT^+ cells relative to controls” value in the data set on AML blasts [4] (AML4) is 3 times. The “% NBT^+ cells (extreme values)” value with AML blasts [4] (M3 (AML3) blasts) is 20%-80%; in the data set with AML blasts [4] (M4 (AML4) blasts) it was 43%-90%; with AML blasts [4] (M5 (AML5) blasts) it was 32%-70%. For the same molecule, the “factor by which MFI values (CD14, CD15) multiplied” value was “around 2” in the data set on AML blasts [5] (AML1/2) and 3 in the data set with AML blasts [5] (AML4). Further, the “cases in which expression of both CD14 and CD15 increased” value in the data set on AML blasts [5] (AML1/2, of the 8 cases) amounted to 6. Also, the “increase of CD15 MFI values” with AML blasts [5] (AML3) was “approximately 3 fold”. Further, the “cases in which maturation was as marked as after all-transretinoic acid” value with AML blasts [5] (AML3, of the 12 cases) came to 8. Moreover, in the data set with AML blasts [5] (AML3, of the 12 cases), the “cases in which maturation was as marked as after all-transretinoic acid, %” value came to 66%. Moreover, the “number of samples in which the % of CD15^+ cells increased” value in the data set with AML blasts [5] (AML3, out of 16 samples) was determined as 12. Also, the “factor by which % of CD14 and CD15 positive cells multiplied” value in the data set on AML blasts [5] (AML4) was 2. The “dose up to which differentiation intensity (CD14 MFI) is related to the dose” value with AML blasts [5] (AML5 blasts, HA-12 (FIG. 3A)) was “up to 15 μg/ml”. Besides, the entries for the “% CD15+ cells (extreme values)” value with AML blasts [5] (M1/M2 (AML1/2) blasts) and in the data set with AML blasts [5] (M3 (AML3) blasts) were 22-100% and 42-90%, respectively. Further, the “% CD15^− cells median values” in the data set on AML blasts [5] (M3 (AML3) blasts) is recorded as 78%. Also, the “CD14 MFI value” in the data set with AML blasts [5] (one AML5 sample with CD14 in negative controls (102 in the negative controls)) is reported as “up to 340 arbitrary units”. For the same molecule, the “cytological change after treatment” value in the data set on AML blasts [6] (AML1/2 blasts) is “No cytological change was observed”. Also, the “cytological characteristics after treatment” value with AML blasts [6] (AML3 blasts, 5 days) was “a segmented nucleus, a low nucleo-cytoplasmic ratio, rare nucleoles, some azurophilic granulations”; with AML blasts [6] (AML5 blasts), “a decrease in the nucleus/cytoplasm ratio, a decrease in the number of nucleoles, chromatin condensation, and irregular cytoplasmic contours”. The “induction of intracellular tyrosine phosphorylations” value in data set [7] is “already induced after one minute of treatment”. The “cases with M-CSF transcripts detected” value in the data set on M-CSF transcripts (M1/M2 AML) stood at 1. In the data set with M-CSF transcripts (M5 AML), the “cases with M-CSF transcript detected” value worked out at 1.
For the molecule `CC1=C(/C=C/C(C)=C/C=C/C(C)=C/C(=O)O)C(C)(C)CCC1` [RA, all-transretinoic acid, reference compound], the “% NBT^+ cells (extreme values)” value with AML blasts [4] (M3 (AML3) blasts) is given as “(RA: 47-90) %”.
